In patent publication US20260284082A1, “TARGETING THE PANX1-P2Y2R-TRPV4 PATHWAY TO TREAT LUNG ISCHEMIA-REPERFUSION INJURY” (UNIVERSITY OF VIRGINIA PATENT FOUNDATION, priority 2023, published 2026):

Columns and labels:
human PMVECs = assay: Baseline Ca2+ signaling in human PMVECs exposed to acute HR (Calbryte 520); type: cell-based; conditions: ARC 10 μM; 1 h hypoxia + 10 min reoxygenation
Description: Exposure of PMVECs to acute HR and Ca^2+ imaging in PMVECs: Primary human and murine pulmonary microvascular endothelial cells (PMVECs; Cell Biologics, Chicago, IL) were cultured on gelatin-coated flasks in endothelial cell medium (Cell Biologics). For acute HR exposure, PMVECs were washed with PBS, and serum-free/glucose-free endothelial cell medium was added. PMVECs were placed in a humidified, sealed hypoxia chamber (Billups-Rothenberg, San Diego, CA), whereupon the chamber was flushed with 95% nitrogen/5% CO2 for 20 minutes and placed in a 37° C. incubator to initiate hypoxia. After 1 hour of hypoxia, the chamber was opened to terminate hypoxia. […]
Ca^2+ imaging in human and mouse PMVECs was performed using an Andor Dragonfly 505 spinning-disk confocal imaging system with Borealis illumination and an Integrated Laser Engine solid-state laser source (Andor Technology, Belfast, UK), coupled with a Leica Dmi8 inverted microscope (Leica) and 63× objective (NA 1.47)^13 Images were acquired at 30 frames per second using Fusion 2.3 (Oxford Instruments, Belfast, UK) and an electron-multiplying CCD camera (iXon888). Calbryte 520 AM was excited at 488 nm, and emitted fluorescence was captured using a 525/50 bandpass emission filter. […]

[1] = system: porcine transplantation model of lung IRI; assay: Porcine left lung transplant model of lung IRI; type: in vivo, swine; conditions: for left lung-specific PaO2/FiO2 ratio: 1 mg/kg i.v., mean±SD
Description: The University of Virginia's Animal Care and Use Committee approved this study, protocol 4262 (approved 10/23/2021). All procedures were performed in compliance with the National Institutes of Health 1996 Guide for the Care and Use of Laboratory Animals. Ten farm-raised, domestic swine of both sexes (31.6-60.0 kg weight range) were utilized. Animals were randomized to one of two groups (n=5/group). […] GSK219 or vehicle was administered as a systemic, intravenous infusion (100 ml volume over a 30-min period via central venous line placed in the left external jugular vein) beginning after the recipient animal's left pulmonary artery (PA) was clamped (i.e. at the time of recipient lung explant; approximately 40 min prior to initiation of graft reperfusion). All infusions were completed prior to reperfusion of the implanted lung.
A porcine left lung transplant model was utilized as previously described by our laboratory^18, with modifications as described here. On day 1, the donor animal was sedated and intubated. General anesthesia was maintained while animals were ventilated with 100% oxygen to measure baseline parameters. Lungs were ventilated to a tidal volume of 8.0 mL/kg with a respiratory rate of 22 breaths/min and a positive end-expiratory pressure of 5.0 cm H2O. Intravenous heparin (200 IU/kg, APP Pharmaceuticals, Schaumburg, IL) was administered.
Donor animals underwent a median sternotomy and pericardiotomy to expose the heart, great vessels, and lungs. Prostaglandin E1 ([…], Pfizer, New York, NY) was injected into the main PA. […] The lungs were then flushed with 1 L room temperature heparinized Perfadex (XVIVO Perfusion. Inc, Englewood, CO; 10,000 IU heparin per liter) via the cardioplegia cannula. At this point the lungs underwent 30 min of warm ischemia. At the conclusion of warm ischemia, the thoracic cavity was filled with cold (4° C.) slush, and lungs were flushed with an additional 1 L cold Perfadex via the main PA. At mid-inspiration, the trachea was clamped, and the heart-lung bloc was explanted. The lungs were then flushed retrograde with an additional IL cold Perfadex and placed in 4° C. cold storage for 24 hrs.
On day 2, recipient animals were anesthetized and ventilated as above for donor animals. A left thoracotomy was performed. and the left lung hilum was exposed. Central arterial and venous access was obtained for monitoring. Left pneumonectomy and left lung transplantation were performed as previously described.^18 Lung function was monitored during 4 hours of reperfusion while the left thoracotomy remained open. Combined (left and right) lung compliance was monitored throughout reperfusion. Airway pressure measurements and partial pressure of arterial oxygen (PaO2; systemic arterial as well as direct left pulmonary vein samples for graft-specific oxygenation) were obtained after 15 minutes, 1 hour and hourly thereafter. […] PaO2, PaCO2, and pH were measured using an i-STAT handheld blood analyzer (Abbott Point of Care, Princeton, NJ). After 4 hours of reperfusion, the animal was euthanized, and the heart-lung bloc was excised.
After completion of reperfusion, small peripheral samples of the transplanted left lungs were tied off, and fresh tissue samples were collected from the left upper lobe, the left lingula, and left lower lobe. The same surgeon collected all samples from consistent, peripheral, dependent locations of each lobe in all animals. These samples were either used fresh or flash-frozen in liquid nitrogen and stored at −80° C.
Fresh lung samples were patted dry, weighed, and dried in a vacuum oven at 56° C. until the weight stabilized (typically 3-4 days). Lung wet/dry weight ratios were then calculated to assess edema.
After collection of fresh lung samples, the left upper lobe was lavaged using 40 ml normal saline. Total cell counts and differential cell counts in BAL fluid were performed by the University of Virginia Clinical Laboratory in a blinded fashion. […]

[2] = after 4 hours of reperfusion, vs vehicle
[3] = after reperfusion, vs vehicle, P<0.05
[4] = after reperfusion, vs vehicle, trended lower

SMILES: Cc1ccc2c(c1)C=Cc1cc(C)ccc1C2c1cn(Cc2ccc(C(=O)Nc3nn[nH]n3)o2)c(=O)[nH]c1=S [ARC, AR-C 118925XX]
- HR-induced increase in baseline endothelial Ca signaling (human PMVECs): blocked

SMILES: O=C(NC1(c2ccccc2)CC1)c1c(CN2CCC(N3CCCCC3)CC2)c(-c2cccc(C(F)(F)F)c2)nc2cc(Br)ccc12 [GSK219, GSK2193874]
- adverse effects of administration ([1]; 1 mg/kg i.v. infusion over 30 min to recipient, 4 h reperfusion): no adverse effects
- left lung-specific PaO2/FiO2 ratio ([1]; 3 hours of reperfusion, vehicle 85.4±17.2, P=0.026): 276±57 mmHg
- left lung-specific PaO2/FiO2 ratio ([1]; 4 hours of reperfusion, vehicle 104±28.6, P=0.003): 303±37 mmHg
- left lung wet/dry weight ratios [1, 2]: no significant differences
- overall lung histology by H&E staining [1, 2]: significantly improved
- wet/dry weight ratios of the left lingula and left lower lobe [1, 2]: trend lower
- neutrophils in BAL fluid (percent of total cells, differential cell count) ([1]; after reperfusion, vehicle 80.2±1.4%, P=0.004): 61.8±4.4%
- Ang-2 in plasma ([1]; after reperfusion, vs vehicle): significantly reduced
- HMGB1 in BAL fluid ([1]; after reperfusion, vs vehicle): significantly reduced
- ICAM-1 in plasma ([1]; after reperfusion, vs vehicle): not significantly different
- IL-1β in BAL fluid ([1]; after reperfusion, vs vehicle): not significantly altered
- IL-8 in BAL fluid ([1]; after reperfusion, vs vehicle): significantly reduced
- P-selectin in plasma ([1]; after reperfusion, vs vehicle): not significantly different
- VCAM-1 in plasma ([1]; after reperfusion, vs vehicle): not significantly different
- ZO-1 in plasma ([1]; after reperfusion, vs vehicle): significantly reduced
- ZO-2 in BAL fluid ([1]; after reperfusion, vs vehicle): not significantly different but trended lower
- ZO-2 in plasma ([1]; after reperfusion, vs vehicle): but not occludin (FIG. 23A) or ZO-2 (FIG. 23D) were significantly reduced
- claudin-5 in plasma ([1]; after reperfusion, vs vehicle): significantly reduced
- occludin in plasma ([1]; after reperfusion, vs vehicle): but not occludin (FIG. 23A) or ZO-2 (FIG. 23D) were significantly reduced
- ZO-1 in BAL fluid [1, 3]: significantly reduced
- claudin-5 in BAL fluid [1, 3]: significantly reduced
- occludin in BAL fluid [1, 3]: significantly reduced
- P-selectin in BAL fluid ([1]; after reperfusion, vs vehicle, P=0.0075): significantly reduced
- ICAM-1 in BAL fluid [1, 4]: No significant changes
- VCAM1 in BAL fluid [1, 4]: No significant changes
- reduction of neutrophil infiltration (immunohistochemistry of lung sections, neutrophils per HPF) ([1]; compared to vehicle control, P<0.0001): 70%
- systemic arterial PaO2/FiO2 ratio ([1]; during reperfusion, vs vehicle): improved during reperfusion in the GSK-treated group, although this was not significant
- histologic score for polymorphonuclear neutrophils per high-powered field (PMNs/HPF) ([1]; left lower lobe after reperfusion, vs vehicle, P=0.028): significantly improved
- histologic composite lung injury score ([1]; left lower lobe after reperfusion, vs vehicle, P=0.041): significantly improved
- histologic score for alveolar edema ([1]; left lower lobe after reperfusion, vs vehicle, P=0.048): significantly improved
- average pulmonary venous pH ([1]; throughout reperfusion, vehicle 7.3±0.024, no significant difference): 7.3±0.020
- average pulmonary venous PaCO2 ([1]; throughout reperfusion, vehicle 60.1±2.11, no significant difference): 60.4±1.46 mmHg
